Tests used:
[1] = system: cutaneous sites of the dorsal region of adult Wistar rats; assay: Local anesthetic activity, intradermal injection in dorsal skin, response to mechanical stimulation; assay type: in vivo; settings: for time of anesthesia compared with lidocaine: doses from 0.5 to 4 μMol/site
Protocol: Female and male Wistar rats, weighing between 200 and 250 g, they came from Oswaldo Cruz Foundation's Center of Laboratory Animal Raising were used. The procedures involving the animals were examined and approved by Oswaldo Cruz Foundation's Committee of Animal Ethics (CEUA-FIOCRUZ, License number 00085-02). After brief anesthesia by exposure to the atmosphere enriched with […] animals were trichotomized dorsal region, where the […] injections with substances for test were performed; doses varied from 0.5 to 4 μMol/site, and vehicule (NaCl 0.9%) (negative control), the final volume was 50 μl. Each animal took six injections and four animals were used for each tested substance. The application points were mechanically estimulated with a tweezer in order to evaluate the integrity of sensitiveness. The site was considered not to be anesthesized whenever after the mechanical stimulation it was observed a local retraction of the skin, according to what had been previously reported. The evaluations began 10 minutes after intradermal injections had been taken, which continued every five minutes until it was obtained the cutaneous retraction response. The values (average±standard error of the mean, SEM) were expressed in terms of “Time of Anesthesia” in minutes.

[2] = system: isolated ileum of an experimental animal; assay: Anaphylactic contraction of isolated ileum induced by antigen (ovoalbumin); settings: antigen (10 μg/ml), average ±SEM, at least 3 animals; read-out: Stimulation with antigen IC50
Protocol: (§1) Female and male experimental animals were used, weighing between 300 and 400 g, they came from Oswaldo Cruz Foundation's Center of Laboratory Animal Raising. The procedures involving the animals were examined and approved by Oswaldo Cruz Foundation's Committee of Animal Ethics (CEUA-FIOCRUZ, Licenca no. 00085-02). The animals were sensitized through a subcutanous injection with a mixture of 50 μg ovoalbumin and 5 mg Al(OH)3. From fourteen to thirty days after the sensitization, the experimental, animal was sacrificed in a chamber of carbonic gas to have its abdomen open and the location of the ileocecal valve. At this point, the intestine was sectioned and a segment of the small intestine, about 20 cm (equivalent to the ileum) was carefully removed and internally washed with a warmed solution (37° C.) of Tyrode (Composition in mM) (NaCl 137; KCl 2.7; NaH2PO4 0.42; NaHCO3 11.9; MgCl2 0.5; CaCl2 1.8; glucose 5.6) to remove the fecal content. […].
(§2) About 3-cm ileum fragments were vertically mounted in 10 ml glass cuvettes, immersed in Tyrode's solution at 37° C., aerated with carbogen (O2, 95% and CO2, 5%) and supplemented with atropine according to the standard procedure. The tissue had one of its ends tied to a rod while the other end was coupled with a transductor after the transference from the rod to the cuvette. The contractions were isotonically registered (basal tension of 1 g) with the support of a transductor of displacement-force connected to a computerized system to capture data. After a 30 minute period of balance, each segment was repeatedly stimulated by histamine (1 μM) until response stabilization. To induce anaphylatic contraction, ileum segments from sensitized experimental animals were stimulated by ovoalbumin (10 μg/ml). […]. The results were presented as a percentage of inhibition calculated in relation to the contractive effect obtained from stimulated and non-treated preparations.
(§3) Concentration-response data were adjusted through non-linear regression curves with the assistence of a graphics software (GraphPad Prism, USA). The concentration of an antagonist needed to inhibit the contractive response to inhibit the contractive response after stimulation by histamine or antigen at 50% (IC50) was used to compare the anti-spasmodic potency. The values expressed as an average ± standard error of the mean and statistically analysed through the test of analysis variance (ANOVA), followed by the Newman-Keuls-Student test.

[3] = system: isolated ileum of an experimental animal; assay: Contraction of isolated ileum induced by histamine; settings: histamine (5 μM), average ±SEM, at least 3 animals; read-out: Stimulation with histamine IC50
Protocol: as §1, §2, §3

[4] = system: experimental animal trachea; assay: Relaxation of trachea pre-contracted by anaphylactic stimulation (ovoalbumin); settings: pre-contracted with ovoalbumin (20 μg/ml), average±SEM, at least 3 animals; read-out: IC50, concentration necessary to relax in 50% the anaphylatic spasm of trachea
Protocol: Female and male experimental animals were used, weighing between 300 and 400 g, they came from Oswaldo Cruz Foundation's Center of Laboratory Animal Raising. The procedures involving the animals were examined and approved by Oswaldo Cruz Foundation's Committee of Animal Ethics (CEUA-FIOCRUZ, License number 00085-02). The animals were sensitized through a subcutaneous injection with a mixture of 50 μg ovoalbumin and 5 mg Al(OH)3. Fourteen to thirty days after the sensitization, the experimental animal was sacrificed in a chamber of carbonic gas to have its trachea removed. The trachea was transferred to a Petri dish containing Krebs solution (composition in mM) (NaCl-119; […] NaHCO3-25; […] The total segment was divided into fragments of about 3 to 4 rings that were sectioned at the extreme ending, the muscular part of the trachea. Each fragment had one of its ends tied to a rod while the other end was connected to an isometric transductor (U Basile, Italy) after the transference from the rod to a 10 ml glass cuvette. […] The contractions were registered with the […] of a computerized system of data capture (Letica, Spain). […] The results were shown as a percentage of relaxation in relation to the plateau of the anaphylatic pre-contraction. Concentration-response data were adjusted through non-linear regression curves with the […] of a graphics software (GraphPad Prism, USA). […] The values were expressed as an average± standard error of the mean and statistically analysed through the test of analysis variance (ANOVA), followed by the Newman-Keuls-Student test.

[5] = system: dorsal subcutaneous tissue of rats; assay: Anaphylactic release of histamine by fragments of dorsal subcutaneous tissue; parameters: species or system Wistar rats; settings: for IC50: 60 min pre-treatment, read-out: IC50, inhibition of histamine release caused by anaphylatic stimulus
Protocol: Female and male Wistar rats were used, weighing between 180 and 200 g, they came from Oswaldo Cruz Foundation's Center of Laboratory Animal Raising. The procedures involving the animals were examined and approved by Oswaldo Cruz Foundation's Committee of Animal Ethics (CEUA-FIOCRUZ, Port. 00085-02). The rats were sensitized with a subcutaneous injection containing a mixture of 50 μg ovalbumina plus 5 mg Al(OH)3. Fourteen days after the sensitization the animals were sacrificed in a chamber of CO2, to have their dorsal hypodermis removed which was fragmented into smaller segments of about 3 mm in a Petri dish containing PBS. The fragments were individually transferred to a dish with 48 pools containing 500 μl of Hanks with Ca^++ and Mg^++.
Five experimental groups were studied in quadruplicates:
I. Saline group, negative control, pools where the tissue was neither treated nor stimulated;
II. Ovoalbumin group, positive control, pools where the tissue was not treated but it was stimulated by ovoalbumin (300 μg/ml);
III. JM24-1 group, pools where the tissue was previously treated with JM24-1 before the stimulation with ovoalbumin (300 μg/ml);
IV. JM25-1 group, pools where the tissue was previously treated with JM25-1 before the stimulation with ovoalbumin (300 μg/ml);
V. JMF2-1 group, pools where the tissue was previously treated with JMF2-1 before the stimulation with ovoalbumin (300 μg/ml).
Treated and non-treated pools were kept at 37° C. in a metabolic incubator (atmosphere containing 95% O2 and 5% CO2) for 60 minutes before the antigenic challenge. After the addition of ovoalbumin (300 μg/ml) all the pools were incubated again in a metabolic oven for more than 60 minutes. After removal of tissue for drying and weighing, the culture medium was collected and acidified with perchloric acid 0.4 N being, after centrifugation 150×g for 10 min. stocked at −20° C. until the moment of fluorimetric quantifying of histamine, according to the previous work. The values were shown like nanograms of released histamine by mg of tissue (dry weight).

[6] = system: Na^+ currents in GH3 cells; assay: Tonic block of Na+ currents in GH3 cells, whole cell patch clamp; assay type: cell-based, Rat
Protocol: Ion channel currents were recorded by means of a patch clamp technique. The cells cultured on the cover glass were placed in a chamber fixed to a microscope stage and continuously perfused with extracellular Saline (A) solution (in mM); 150 NaCl, 5 KCl, 1 MgCl2, 0.01 CaCl2, 1 EGTA, 10 HEPES, 2 BaCl2, 0.1 CdCl2, pH 7.4 at room temperature (22-25° C.) adjusted with NaOH. The cells were observed using phase contrast mode under an inverted microscope (Axiovert 100, Carl Zeiss, Oberkochem, D Germany). Tight-seal (>10 GΩ) whole cell voltage-clamp recordings were performed with an Axopatch-1D amplifier (Axon Instruments, San Mateo, Calif.). […] Fifteen minutes after rupture of the patch membrane, we started to record ion channel currents. Pulse protocols and data acquisition were controlled by Digidata 1320 interface (Axon Instruments, Palo Alto, Calif.), and acquired on a personal computer using Clampex 9 software. The Na^+ current recordings were filtered at 1 kHz and sampled at 8 kHz. About 26% of series resistance was electronically compensated. Drugs were applied to the recording chamber by gravity. Perfusion rate was maintained at 0.8-1.1 ml/min and bath volume was of 50 μl. […] Voltage-gated Na^+ currents were recorded from these cells in the presence or absence of treatment.

[7] = system: sensitized experimental animals; assay: Pulmonary eosinophil infiltrate after ovoalbumin aerosol challenge, bronchoalveolar lavage count; assay type: in vivo; settings: 5% aerosol, 30 min, with ovoalbumin 1% plus 3 aerosolizations every 3 h; lavage 24 h after challenge
Protocol: The animals were sensitized through a cutaneous injection of a mixture with 50 μg ovoalbumin and 5 mg Al(OH)3, and challenged with ovoalbumin (1%) aerosol for 30 min 14 days afterwards, according to what was previously described. In order to avoid death of animals by anaphylatic asphyxia, all of them were treated intraperitonially with the anti-histaminic difenidramine (30 mg/kg) 30 minutes before being challenged.
Bronchoalveolar Lavage and Eosinophils Counting
All the animals were anesthesized terminally through an intraperitonial injection of pentobarbital (200 mg/kg) 24 h after the antigenic challenge, to wash the bronchoalveolar space according to the techniques previously described. Total leukocyte count were done after dilution of bronchoalveolar lavage samples in Turk liquid and counting in the Neubauer chamber with the assistance of direct-light microscopy. The differential eosinophil count was done also under direct-light microscopy, after centrifugation of samples of the lavage as well as its exposure to specific dyestuff (May-Grunwald-Giemsa dye).
The averages± standard error of the mean of the groups investigated were analyzed based on statistics through the test of variance analysis (ANOVA), followed by the Newman-Keuls-Student test.
Values, expressed in terms of “number of eosinophils×10^6/lavage” are presented as average±SEM in at least 7 animals. In the negative control group, animals previously sensitized were artificially-challenged through exposure to sterile saline (NaCl, 0.9%) aerosol. […] “*” represents the difference statistically significant (P<0.05), when the group treated and the positive control group were compared.

Swiss 44 mice = assay: Convulsivant activity after intraperitoneal injection; assay type: in vivo; settings: mouse, in vivo, ip
Protocol: Female and male Swiss 44 mice were used, weighing between 25 and 30 g, they came from Oswaldo Cruz Foundation's Center of Laboratory Animal Raising. The procedures involving the animals were examined and approved by Oswaldo Cruz Foundation's Committee of Animal Ethics (CEUA-FIOCRUZ, Act 00085-02). […] For each molecule, the necessary dose to induce a convulsive clinical Figure in 50% of the animals (DE50) was determined by linear regressive curves interpoled (GraphPad Prim, version 3.03).

patients = settings: cited from earlier work

SMILES	time of anesthesia compared with lidocaine [1]	IC50 [2] [µM]	IC50 [3] [µM]	IC50 [4] [µM]	inhibition of anaphylactic histamine release, result in words ([5]; ovoalbumin (300 μg/ml))	IC50 ([5]; ovoalbumin (300 μg/ml)) [µM]	Time of Anesthesia ([1]; 4 μMol/site intradermal, n=4, average±SEM) [min]	IC50 ([6]; GH3 cells, holding potential −80 mV to +60 mV step pulse, read-out: IC50, blockade of Na+ currents) [µM]	50% inhibitory concentration, times higher than lidocaine ([6]; ratio to lidocaine IC50) [times]	blocking the accumulation of eosinophils in the bronchoalveolar area [7]	times more potent than lidocaine, histamine release ([5]; ratio to lidocaine)	DE50, dose to induce convulsion in 50% of the animals (Swiss 44 mice) [mg/kg]	attenuation of bronchospasm by histamine (patients)
CCN(CC)CC(=O)Nc1cc(C)ccc1C [JM25-1, 2-dyethylamine-2′,5′-acetoxylidide]	significantly inferior	120 ± 10	140 ± 20	130 ± 20	concentrations comparable to that of lidocaine	8.35	–	–	–	–	–	–	–
CCN(CC)CC(=O)Nc1ccccc1C(F)(F)F [JMF2-1, 2-dyethylamine-2-trifluormetilacetotoluidide]	significantly inferior	–	100 ± 10	–	–	0.16	28 ± 1	25400	169	equipotent to lidocaine	about 29 times	305	–
CCCCOc1ccc(C(=O)CCN2CCCCC2)cc1 [dyclonine]	–	–	–	–	–	–	–	–	–	–	–	–	ineffective
